From paper PMC3743170 (Molecular Informatics, 2013)

Columns and labels:
PI3Kα = PI3Kα (Homo sapiens, UniProt P42336); assay: PI3Kα activity determination; assay type: biochemical; settings: 10-dose IC50 determination (n=3), 10 µM ATP
[1] = Dynamic light scattering aggregation; assay type: physicochemical; settings: aqueous solution with 1 % DMSO
human M1 receptor = molecular target: T1, human M1 receptor (Homo sapiens, UniProt P11229); assay: Cell-based functional M1 agonist assay
T1 sequence (P11229 1-460): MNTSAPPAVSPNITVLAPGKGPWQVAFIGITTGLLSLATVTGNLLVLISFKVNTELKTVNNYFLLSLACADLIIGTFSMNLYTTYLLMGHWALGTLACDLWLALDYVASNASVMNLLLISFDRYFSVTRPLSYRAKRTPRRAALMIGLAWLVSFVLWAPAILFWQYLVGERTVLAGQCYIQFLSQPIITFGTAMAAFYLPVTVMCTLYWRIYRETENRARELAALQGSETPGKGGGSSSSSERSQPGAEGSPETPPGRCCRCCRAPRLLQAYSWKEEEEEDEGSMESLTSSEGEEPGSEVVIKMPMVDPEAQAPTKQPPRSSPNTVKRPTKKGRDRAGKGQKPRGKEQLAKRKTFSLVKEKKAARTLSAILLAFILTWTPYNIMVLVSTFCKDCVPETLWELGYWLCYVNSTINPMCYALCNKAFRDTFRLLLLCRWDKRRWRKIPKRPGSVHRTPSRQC

PI3Kα, sequence (P42336 whole entry): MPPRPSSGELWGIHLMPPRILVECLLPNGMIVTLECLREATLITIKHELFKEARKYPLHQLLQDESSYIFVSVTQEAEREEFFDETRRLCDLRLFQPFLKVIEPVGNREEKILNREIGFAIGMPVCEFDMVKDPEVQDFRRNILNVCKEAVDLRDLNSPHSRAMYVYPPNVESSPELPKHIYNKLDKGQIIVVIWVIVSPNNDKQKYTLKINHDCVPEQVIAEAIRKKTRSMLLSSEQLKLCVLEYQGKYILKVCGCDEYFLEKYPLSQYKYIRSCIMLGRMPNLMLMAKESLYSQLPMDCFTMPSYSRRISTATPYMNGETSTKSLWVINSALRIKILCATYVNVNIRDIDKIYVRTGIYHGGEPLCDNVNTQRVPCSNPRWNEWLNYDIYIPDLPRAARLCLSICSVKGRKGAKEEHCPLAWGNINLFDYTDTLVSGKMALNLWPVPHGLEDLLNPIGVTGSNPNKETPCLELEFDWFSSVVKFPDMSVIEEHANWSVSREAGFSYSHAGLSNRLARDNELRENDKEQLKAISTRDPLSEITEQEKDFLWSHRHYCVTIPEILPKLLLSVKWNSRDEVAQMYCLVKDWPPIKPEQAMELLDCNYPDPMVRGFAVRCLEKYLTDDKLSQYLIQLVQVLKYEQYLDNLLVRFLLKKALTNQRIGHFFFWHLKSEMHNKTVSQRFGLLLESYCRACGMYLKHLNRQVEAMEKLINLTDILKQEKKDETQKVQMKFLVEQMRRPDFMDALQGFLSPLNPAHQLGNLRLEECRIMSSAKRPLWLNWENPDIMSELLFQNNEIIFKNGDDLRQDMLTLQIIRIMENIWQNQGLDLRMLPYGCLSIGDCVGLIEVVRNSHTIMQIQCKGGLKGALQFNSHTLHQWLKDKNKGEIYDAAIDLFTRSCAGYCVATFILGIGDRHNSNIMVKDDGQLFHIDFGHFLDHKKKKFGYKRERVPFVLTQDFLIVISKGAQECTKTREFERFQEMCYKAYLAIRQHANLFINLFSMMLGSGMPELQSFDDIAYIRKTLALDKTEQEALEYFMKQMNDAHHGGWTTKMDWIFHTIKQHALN
PI3Kα, sequence (P27986 whole entry partner): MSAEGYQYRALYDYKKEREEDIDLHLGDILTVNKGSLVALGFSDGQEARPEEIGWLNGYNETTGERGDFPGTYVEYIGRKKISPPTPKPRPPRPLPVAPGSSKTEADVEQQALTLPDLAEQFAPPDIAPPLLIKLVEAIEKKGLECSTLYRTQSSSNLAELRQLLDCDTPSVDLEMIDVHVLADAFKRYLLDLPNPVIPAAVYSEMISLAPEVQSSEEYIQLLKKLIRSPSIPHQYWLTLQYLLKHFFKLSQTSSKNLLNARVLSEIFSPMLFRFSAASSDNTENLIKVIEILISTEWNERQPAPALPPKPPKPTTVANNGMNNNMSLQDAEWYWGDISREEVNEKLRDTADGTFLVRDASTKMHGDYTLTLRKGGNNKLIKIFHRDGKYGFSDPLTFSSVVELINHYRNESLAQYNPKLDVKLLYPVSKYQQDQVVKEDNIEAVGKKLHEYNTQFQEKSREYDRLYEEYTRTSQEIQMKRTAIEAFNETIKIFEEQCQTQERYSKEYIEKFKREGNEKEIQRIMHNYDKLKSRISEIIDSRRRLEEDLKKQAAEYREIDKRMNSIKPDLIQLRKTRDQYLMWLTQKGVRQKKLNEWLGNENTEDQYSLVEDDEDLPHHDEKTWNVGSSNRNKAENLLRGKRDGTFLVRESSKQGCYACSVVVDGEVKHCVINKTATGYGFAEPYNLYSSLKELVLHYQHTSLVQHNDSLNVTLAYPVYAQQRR

Compound | IC50 (PI3Kα) | concentrations at which aggregate particles were observable [1] | EC50 (human M1 receptor) | M1 agonistic activity, % of the effect caused by 100 nM acetylcholine (human M1 receptor; compound concentration of 10 µM)
COC(=O)CNc1c(-c2ccc(OC)cc2OC)nc2ccccn12 [Compound 1, methyl 2-((2-(2,4-dimethoxyphenyl)imidazo[1,2-a]pyridin-3-yl)amino)acetate] | 131 µM |  |  | 
COC(=O)c1ccn2c(NCCN3CCOCC3)c(-c3cccn3C)nc2c1 [Compound 2, methyl 2-(1-methyl-1H-pyrrol-2-yl)-3-((2-morpholinoethyl)amino)imidazo[1,2-a] pyridine-7-carboxylate] | 230 ± 30 µM | 15.5 to 250 µM | ~5 µM | 34±5%
